Assay results reported in US11129807B2, “Methods of treating schizophrenia” (Sunovion Pharmaceuticals Inc., priority 2017, dated 2021).

Legend:
[1] = system: Pre-pulse Inhibition (PPI) in Mice; assay: Pre-pulse inhibition (PPI) of startle in mice;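 note: plus grades count prepulse intensities with significant PPI increase at P below 0.05 and minus means no change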; format: in vivo; settings: 30 min prior to PPI test, male C57Bl/6J mice, vs. vehicle
Protocol: (§1) Anti-psychotic like activity of the compounds was evaluated in mice using the PCP hyperactivity and Pre-Pulse Inhibition (PPI) models of schizophrenia.
(§2) Methods: Animals: Male C57Bl/6J mice from Jackson Laboratories (Bar Harbor, Me.) were used. Upon receipt, mice were assigned unique identification numbers (tail marked) and were group housed with 4 mice per cage in OptiMICE ventilated cages. All animals remained housed in groups of four during the remainder of the study. All mice were acclimated to the colony room for at least two weeks prior to testing. During the period of acclimation, mice were examined on a regular basis, handled, and weighed to assure adequate health and suitability. Animals were maintained on a 12/12 light/dark cycle. The room temperature was maintained between 20 and 23° C. with a relative humidity maintained between 30% and 70%. Chow and water were provided ad libitum for the duration of the study. In each test, animals were randomly assigned across treatment groups.
Prepulse Inhibition of Startle: The acoustic startle is an unconditioned reflex response to an external auditory stimulus. Prepulse inhibition of startle (PPI) refers to the reduction in the startle response caused by the presentation of a low-intensity auditory stimulus prior to the startle stimulus. The PPI paradigm is used for the study of schizophrenia and antipsychotic action due to the similarities between the results from human and rodent studies. […] Various psychotomimetic drugs such as PCP can disrupt PPI. In mice, antipsychotic drugs such as clozapine can reverse the disruption of PPI induced by PCP.
Mice were placed in the PPI chambers (Med Associates) for a 5 min session of white noise (70 dB) habituation. After the habituation period the test session was initiated. The session started with a habituation block of 6 presentations of the startle stimulus alone, followed by 10 PPI blocks, each of which consisted of 6 different types of trials. Trial types were: ‘null’ (no stimuli), ‘startle’ (120 dB), ‘startle plus prepulse’ (4, 8 and 12 dB over background noise, i.e., 74, 78 or 82 dB) and ‘prepulse’ (82 dB). Trial types were presented in a random order within each block. Each trial started with a 50 ms stimulus-free period during which baseline movements were recorded. This was followed by a subsequent 20 ms period during which the prepulse stimulus was presented and responses to the prepulse measured. After a further 100 ms period, the startle stimulus was presented for 40 ms and responses recorded for 100 ms from startle onset. Responses were sampled every ms. The inter-trial interval was variable with an average of 15 s (range from 10 to 20 s). In ‘startle’ trials the basic auditory startle response was measured. The basic startle response was calculated as the mean startle response of all ‘startle’ trials (i.e., excluding the first habituation block). In ‘startle plus prepulse’ trials the degree of inhibition of the normal startle was calculated and expressed as a percentage of the basic startle response.
Mice were treated with vehicle, haloperidol (1 mg/kg; i.p) or test compound 30 min prior to PPI test. The PPI enclosures were cleaned following each test.

[2] = system: PCP-Induced Hyperactivity Responses in Mice; assay: PCP-induced hyperactivity (open field) in mice;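 note: plus means significant inhibition of PCP hyperactivity at P below 0.05 and minus means none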; format: in vivo; settings: male C57Bl/6J mice, vs. vehicle + PCP
Protocol: as §1, §2
The analysis was configured to divide the open field into a center and periphery zone. Distance traveled was measured from horizontal beam breaks as the mouse moved whereas rearing activity was measured from vertical beam breaks.
Mice were injected with vehicle, test compound, or clozapine (1 mg/kg; i.p) and placed in the OF chambers for 30 min measurement of baseline activity. Mice were then injected with either water or PCP (5 mg/kg; i.p) and placed back in the OF chambers for a 60-minute session. At the end of each OF test session the OF chambers were thoroughly cleaned.

[3] = system: patients with an acute exacerbation of schizophrenia (PANSS symptom factors); assay: Pooled 6-week placebo-controlled lurasidone studies in acute schizophrenia (PANSS Analysis Study): effect sizes on Marder and transformed PANSS factors; format: in vivo, human; settings: FIG. 3B, given as r=
Protocol: Profile of active drug effects on schizophrenia symptom domains. In the left panel of FIG. 3B, shown are lurasidone vs placebo effect sizes (with 95% CI) for change from baseline at week 6 endpoint, based on the Marder PANSS factors. In the right panel of FIG. 3B, the same lurasidone vs placebo effect sizes at endpoint are shown based on the transformed PANSS factors. Drug effects were constructed using a pool of all lurasidone doses (40, 80, 120, or 160 mg/day, total N=993) and excluded active comparators (olanzapine, quetiapine-XR). To examine placebo effects on PANSS factors, placebo treated patients (N=484) were pooled across all studies. Transformed PANSS factors were calculated using the coefficients of the score matrix (see FIG. 4 and Table 4A).
The analysis sample consisted of PANSS data derived from 5 similarly-designed, randomized, double-blind, placebo-controlled, 6-week treatment studies of lurasidone or active comparator for the treatment of patients with an acute exacerbation of schizophrenia. Patients (N=1,710) were included in this analysis if they had received at least one dose of study drug, and had at least one post-baseline PANSS assessment. The analysis pooled all lurasidone doses (40, 80, 120, or 160 mg/d, total N=993), and excluded active comparators (olanzapine, quetiapine-XR). To examine placebo effects on PANSS factors, placebo treated patients (N=484) were pooled across all studies. Herein also referred to as the “PANSS Analysis Study.”
The Uncorrelated PANSS Score Matrix (UPSM) of FIG. 4 and Table 4A was derived using PROC FACTOR procedure of SAS 9.4 with maximum likelihood method (maximum likelihood factor analysis), rotated using the varimax algorithm and compensated for communality greater than 1 using Heywood criteria without a limit on the number of factors produced. A last observation carried forward (LOCF) data imputation method was applied for missing post-baseline PANSS assessments.
The ratings of 30 items in the PANSS data of the PANSS Analysis Study were transformed to transformed PANSS factor scores using a score matrix identified by the maximum likelihood method factor analysis conducted on all change from baseline PANSS data from the 5 short-term clinical trials in the pooled analysis sample. The score matrix, also referred to here as the UPSM, consisted of coefficients multiplying the numerical ratings of each PANSS item differentially for each of the factor scores.
The change-from-baseline PANSS data for all patients and all observations N was a matrix of dimensions (N observations×30 items). To increase precision, the score matrix coefficients were determined using all change-from-baseline observations at Weeks 1-6. The resultant score matrix (30 items×7 factors), or UPSM, was used to transform individual PANSS item change scores (without standardization) to reduce the dimensionality into 7-factor values for each PANSS assessment. FIG. 4 and Table 4A summarize the score matrix (UPSM) weights for individual PANSS items used to generate the transformed PANSS factors.
The weighted score matrix transformation was performed on each of the PANSS item baseline-to-endpoint change scores. This transformation yielded 5 transformed PANSS factors that corresponded to the Marder PANSS factors, with two of the factors (negative symptoms and depression/anxiety) further subdivided into sub-factors (corresponding to the symptom sub-domains of: apathy/avolition and deficit of expression; and depression and anxiety, respectively).
The Validation Study data transformed PANSS factors of Example 1 were used to compare treatment effects of an antipsychotic (lurasidone) on established schizophrenia symptom domains with those estimated using Marder PANSS factors.

[4] = 0.3 mg/kg Compound + PCP (5 mg/kg; i.p)
[5] = 1 mg/kg Compound + PCP (5 mg/kg; i.p)
[6] = 3 mg/kg Compound + PCP (5 mg/kg; i.p)
[7] = 10 mg/kg Compound + PCP (5 mg/kg; i.p)
[8] = 30 mg/kg Compound + PCP (5 mg/kg; i.p)

CNC[C@H]1OCCc2c(C)csc21 [Compound 172]
Effect on Pre-pulse Inhibition (PPI) ([1]; 3 mg/kg): −
Effect on Pre-pulse Inhibition (PPI) ([1]; 10 mg/kg): −
Effect on Pre-pulse Inhibition (PPI) ([1]; 30 mg/kg): −
Effect on Pre-pulse Inhibition (PPI) ([1]; 100 mg/kg): −
Total Distance Traveled (cm) [2, 4]: −
Total Distance Traveled (cm) [2, 5]: +
Total Distance Traveled (cm) [2, 6]: +
Total Distance Traveled (cm) [2, 7]: −
Total Distance Traveled (cm) [2, 8]: −

c1cc2c(s1)[C@@H]([C@H]1CCCN1)OCC2 [Compound 205]
Effect on Pre-pulse Inhibition (PPI) ([1]; 3 mg/kg): −
Effect on Pre-pulse Inhibition (PPI) ([1]; 10 mg/kg): −
Effect on Pre-pulse Inhibition (PPI) ([1]; 30 mg/kg): +++
Total Distance Traveled (cm) [2, 4]: +
Total Distance Traveled (cm) [2, 5]: +
Total Distance Traveled (cm) [2, 6]: +
Total Distance Traveled (cm) [2, 7]: +
Total Distance Traveled (cm) [2, 8]: +

C[C@H](N)[C@@H]1OCCc2ccsc21 [Compound 213]
Effect on Pre-pulse Inhibition (PPI) ([1]; 3 mg/kg): −
Effect on Pre-pulse Inhibition (PPI) ([1]; 10 mg/kg): +++
Effect on Pre-pulse Inhibition (PPI) ([1]; 30 mg/kg): +++
Total Distance Traveled (cm) [2, 4]: +
Total Distance Traveled (cm) [2, 5]: +
Total Distance Traveled (cm) [2, 6]: +
Total Distance Traveled (cm) [2, 7]: +
Total Distance Traveled (cm) [2, 8]: +

CCNC[C@H]1OCCc2ccsc21 [Compound 242]
Effect on Pre-pulse Inhibition (PPI) ([1]; 3 mg/kg): −
Effect on Pre-pulse Inhibition (PPI) ([1]; 10 mg/kg): −
Effect on Pre-pulse Inhibition (PPI) ([1]; 30 mg/kg): −
Total Distance Traveled (cm) [2, 4]: −
Total Distance Traveled (cm) [2, 5]: +
Total Distance Traveled (cm) [2, 6]: +
Total Distance Traveled (cm) [2, 7]: +
Total Distance Traveled (cm) [2, 8]: +

CCNC[C@@H]1OCCc2sccc21 [Compound 310]
Effect on Pre-pulse Inhibition (PPI) ([1]; 3 mg/kg): −
Effect on Pre-pulse Inhibition (PPI) ([1]; 10 mg/kg): −
Effect on Pre-pulse Inhibition (PPI) ([1]; 30 mg/kg): +++
Total Distance Traveled (cm) [2, 4]: +
Total Distance Traveled (cm) [2, 5]: −
Total Distance Traveled (cm) [2, 6]: −
Total Distance Traveled (cm) [2, 7]: +
Total Distance Traveled (cm) [2, 8]: +

CCNC[C@H]1OCCc2sccc21 [Compound 311]
Effect on Pre-pulse Inhibition (PPI) ([1]; 3 mg/kg): −
Effect on Pre-pulse Inhibition (PPI) ([1]; 10 mg/kg): −
Effect on Pre-pulse Inhibition (PPI) ([1]; 30 mg/kg): +++
Total Distance Traveled (cm) [2, 4]: −
Total Distance Traveled (cm) [2, 5]: +
Total Distance Traveled (cm) [2, 6]: +
Total Distance Traveled (cm) [2, 7]: +
Total Distance Traveled (cm) [2, 8]: +

O=C1[C@@H]2[C@H]3CC[C@H](C3)[C@@H]2C(=O)N1C[C@@H]1CCCC[C@H]1CN1CCN(c2nsc3ccccc23)CC1 [lurasidone]
effect size, Marder negative symptom factor ([3]; change score): 0.35
effect size, transformed PANSS negative symptoms deficit of expression ([3]; change score): 0.04
effect size, transformed PANSS negative symptoms of apathy/avolition ([3]; change score): 0.22
effect size, Marder PANSS disorganized factor change score [3]: 0.48
effect size, Marder PANSS factor change score compared with transformed anxiety factor [3]: 0.38
effect size, Marder PANSS factor change score compared with transformed depression factor [3]: 0.38
effect size, Marder PANSS hostility factor change score [3]: 0.43
effect size, Marder PANSS positive factor change score [3]: 0.59
effect size, transformed PANSS anxiety factor change score [3]: 0.24
effect size, transformed PANSS depression factor change score [3]: 0.16
effect size, transformed PANSS disorganized factor change score [3]: 0.23
effect size, transformed PANSS hostility factor change score [3]: 0.31
effect size, transformed PANSS positive factor change score [3]: 0.45
